Measured values reported in patent US4568646A, “Preparation of antibiotic LL-D05139β from cultures of Glycomyces harbinensis, gen. nov., sp. nov” (American Cyanamid Company, priority 1985, dated 1986).

Tests used:
[1] = system: human lung carcinoma (LX-1); experiment: Human tumor clonogenic (stem cell) assay, lung carcinoma; format: cell-based; details: for T/C (treated/control colonies): Lung Carcinoma
Protocol: (§1) This test was performed essentially by the method of A. Hamburger and S. Salmon, Primary bioassay of human tumor stem cells., Science, 197: 461-463 (1977). Human colon carcinoma (CX-1) and human lung carcinoma (LX-1) tumors were obtained from the National Cancer Institute and propagated in athymic Balb/c mice. Freshly removed tumors were dispersed with trypsin 0.25% and 5×10^4 lung carcinoma cells or 1×10^5 colon carcinoma cells in soft (0.3%) agarose medium containing 0.1 ml of test drug were plated onto a solidified (0.5%) agarose base medium in 35 mm grided dishes. Cultures were incubated at 37° C. in a humidified 5% carbon dioxide in air atmosphere. Colonies were counted after 10-11 days. A compound is considered active if the treated/control (T/C) value is ≤30%, representing a 70% cell kill.

[2] = system: human colon carcinoma (CX-1); experiment: Human tumor clonogenic (stem cell) assay, colon carcinoma; format: cell-based
Protocol: as §1

[3] = Stability in solution as a function of pH; format: physicochemical

- Stability in solution ([3]; below pH 5.0): Decomposes rapidly
- Stability in solution ([3]; weakly basic solutions): stable
Structure (SMILES): C[C@H](N)C(=O)N[C@@H](COC(=O)C=[N+]=[N-])C(=O)O [LL-D05139β, N-L-alanyl-L-serine diazoacetate]
- T/C (treated/control colonies) ([1]; concentration 2 mgc/ml): 23.2%
- T/C (treated/control colonies) ([1]; concentration 20 mgc/ml): 17.8%
- T/C (treated/control colonies) ([1]; concentration 200 mgc/ml): 13.0%
- Activity in human tumor clonogenic assay (active if T/C ≤30%) ([1]; human lung (LX-1) carcinoma, at 2.0 mcg/ml and higher doses): active
- T/C (treated/control colonies) ([2]; Colon Carcinoma, concentration 2 mgc/ml): 16.0%
- Activity in human tumor clonogenic assay (active if T/C ≤30%) ([2]; colon (CX-1) carcinoma, at 2.0 mcg/ml and higher doses): active
